Results on 15 compounds are retold here after US20260217708A1, “FUSED BENZAZEPINE DERIVATIVES FOR USE IN THE TREATMENT OF CANCER AND EPILEPSY” (UCB BIOPHARMA SRL, priority 2023, published 2026).

The target in assay [1] is T1, system Xc^− (Homo sapiens, UniProt Q9UPY5).
T1 sequence (Q9UPY5 1-501): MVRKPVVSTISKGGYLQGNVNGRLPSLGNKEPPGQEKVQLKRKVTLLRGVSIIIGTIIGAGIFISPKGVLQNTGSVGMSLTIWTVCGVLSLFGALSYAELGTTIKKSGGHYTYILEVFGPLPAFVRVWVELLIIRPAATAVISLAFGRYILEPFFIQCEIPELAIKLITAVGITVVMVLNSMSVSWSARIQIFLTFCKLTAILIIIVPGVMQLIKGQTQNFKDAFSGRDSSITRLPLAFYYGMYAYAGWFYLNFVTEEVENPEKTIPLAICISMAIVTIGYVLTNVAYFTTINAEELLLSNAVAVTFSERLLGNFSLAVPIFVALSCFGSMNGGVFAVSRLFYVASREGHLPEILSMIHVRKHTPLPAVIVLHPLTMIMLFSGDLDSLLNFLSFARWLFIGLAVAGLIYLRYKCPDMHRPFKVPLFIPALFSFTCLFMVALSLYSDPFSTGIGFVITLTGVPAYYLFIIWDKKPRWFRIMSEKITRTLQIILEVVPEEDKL
T1 sequence (P08195 1-529 partner): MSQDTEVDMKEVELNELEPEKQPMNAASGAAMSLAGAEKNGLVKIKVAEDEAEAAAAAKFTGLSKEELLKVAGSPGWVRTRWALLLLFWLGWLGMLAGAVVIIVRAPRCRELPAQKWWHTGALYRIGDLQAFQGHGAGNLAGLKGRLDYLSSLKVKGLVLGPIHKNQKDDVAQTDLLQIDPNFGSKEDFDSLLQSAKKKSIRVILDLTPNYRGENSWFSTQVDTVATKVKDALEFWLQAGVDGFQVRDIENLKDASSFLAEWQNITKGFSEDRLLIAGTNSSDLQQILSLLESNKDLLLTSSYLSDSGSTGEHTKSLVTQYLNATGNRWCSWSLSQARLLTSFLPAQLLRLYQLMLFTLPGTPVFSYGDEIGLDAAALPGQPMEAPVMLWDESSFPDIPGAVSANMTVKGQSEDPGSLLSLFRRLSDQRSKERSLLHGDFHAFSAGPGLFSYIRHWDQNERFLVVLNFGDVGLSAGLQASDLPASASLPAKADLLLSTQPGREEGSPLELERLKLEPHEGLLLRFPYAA
The assay can be described thus: [^14C]L-Cystine uptake assay. It counts as cell-based. Further details: endogenous in cells; host or cells: H4 cells. The following applies: H4 cells, sodium-free HEPES buffer, 0.5 μM L-[14C]Cystine and 4.5 μM L-Cystine, 1 hour at 37° C.; for IC50: read-out: pIC50 [^14C] L-Cystine uptake assay (converted). The procedure, abridged:
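Compound effect is given as pIC50, taken between controls of 1% DMSO and 50 μM Erastin. Human H4 cells were pretreated 15 min with compound in sodium-free buffer, then took up 0.5 μM [14C]cystine with 4.5 μM cold cystine for 1 hour at 37° C, read by scintillation proximity counting.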

Assay [2] concerns the target T1, system Xc^−. Briefly: Cystine-induced glutamate release assay. Further details: endogenous in cells; host or cells: H4 cells. It counts as cell-based. To be noted: H4 cells, sodium-free HEPES buffer, 50 μM L-Cystine, 2 hours, Amplex Red glutamate readout; for IC50: read-out: pIC50 Cystine-induced glutamate release assay (converted). The procedure, abridged: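 IC50 (reported as pIC50) normalized to DMSO 1% and Erastin 50 μM controls, from Amplex Red fluorescence of glutamate exported into supernatant. H4 cells were washed into sodium-free buffer to exclude EAAT transport, then given compound with 50 μM L-cystine for 2 h in the incubator.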

`Cc1cc2c(c(Cl)n1)-c1cncnc1[C@@H](C)C(=O)N2CC(=O)Nc1ccc(C(F)(F)F)cc1` (single isomer, unassigned) [#207, Enantiomer (8S) or (8R) of 2-[15-chloro-8,13-dimethyl-9-oxo-4,6,10,14-tetrazatricyclo[9.4.0.0^2,7]pentadeca-1(11),2,4,6,12,14-hexaen-10-yl]-N-[4-(trifluoromethyl)phenyl]acetamide]: the IC50 in assay [1] was less than 15.8 nM; in assay [2], 15.8 to 39.8 nM.

As for `Cc1cc2c(n(C)c1=O)-c1cccnc1[C@@H](C)C(=O)N2CC(=O)Nc1ccc(C(F)(F)F)cc1` (single isomer, unassigned) [#208, Enantiomer (10S) or (10R) of N-[4-(trifluoromethyl)phenyl]-2-[3,5,10-trimethyl-4,9-dioxo-3,8,12-triazatricyclo[9.4.0.0^2,7]pentadeca-1(11),2(7),5,12,14-pentaen-8-yl]acetamide], the IC50 in assay [1] and in assay [2] was less than 15.8 nM throughout.

Consider `COc1cc2c(c(F)n1)-c1cccnc1[C@@H](C)C(=O)N2CC(=O)Nc1ccc(C(F)(F)F)cc1` (single isomer, unassigned) [#209, Enantiomer (10S) or (10R) of 2-[3-fluoro-5-methoxy-10-methyl-9-oxo-4,8,12-triazatricyclo[9.4.0.0^2,7]pentadeca-1(15),2(7),3,5,11,13-hexaen-8-yl]-N-[4-(trifluoromethyl)phenyl]acetamide], for which the IC50 in assay [1] and in assay [2] was 15.8 to 39.8 nM in each case.

As to `CO[C@H]1C(=O)N(CC(=O)Nc2ccc(C(F)(F)F)cc2)c2cc(C)nc(Cl)c2-c2cccnc21` (single isomer, unassigned) [#210, Enantiomer (10S) or (10R) of 2-[3-chloro-10-methoxy-5-methyl-9-oxo-4,8,12-triazatricyclo[9.4.0.0^2,7]pentadeca-1(11),2(7),3,5,12,14-hexaen-8-yl]-N-[4-(trifluoromethyl)phenyl]acetamide], the figures for the IC50 in assay [1] and in assay [2] were less than 15.8 nM and 15.8 to 39.8 nM, respectively.

For `Cc1cc2c(c(F)n1)-c1cccnc1[C@@H](O)C(=O)N2CC(=O)Nc1ccc(C(F)(F)F)cc1` (single isomer, unassigned) [#211, Enantiomer (10S) or (10R) of 2-[3-fluoro-10-hydroxy-5-methyl-9-oxo-4,8,12-triazatricyclo[9.4.0.0^2,7]pentadeca-1(11),2(7),3,5,12,14-hexaen-8-yl]-N-[4-(trifluoromethyl)phenyl]acetamide], the IC50 was 15.8 to 39.8 nM in assay [1] and less than 15.8 nM in assay [2].

For the compound `Cc1cc2c(c(F)n1)-c1cccnc1C(O)C(=O)N2CC(=O)Nc1ccc(Br)c(Cl)c1` (single isomer, unassigned) [#213, Enantiomer (10S) or (10R) of N-(4-bromo-3-chloro-phenyl)-2-[(10S)-3-fluoro-10-hydroxy-5-methyl-9-oxo-4,8,12-triazatricyclo[9.4.0.0^2,7]pentadeca-1(11),2(7),3,5,12,14-hexaen-8-yl]acetamide], the IC50 in assay [1] and in assay [2] was 15.8 to 39.8 nM in each case.

As for `COc1cc2c(c(F)n1)-c1cccnc1C(C)C(=O)N2CC(=O)Nc1ccc(C(F)F)cc1` (single isomer, unassigned) [#214, Enantiomer (10S) or (10R) of N-[4-(difluoromethyl)phenyl]-2-[3-fluoro-5-methoxy-10-methyl-9-oxo-4,8,12-triazatricyclo[9.4.0.0^2,7]pentadeca-1(15),2(7),3,5,11,13-hexaen-8-yl]acetamide], the “pIC50 [^14C] L-Cystine uptake assay” value in assay [1] was “C (about 7.40 < pIC50 ≤ about 7.80)”. Further, the “pIC50 Cystine-induced glutamate release assay” value in assay [2] was “D (plC50 > about 7.80)”.

Regarding `COc1cc2c(c(F)n1)-c1cccnc1C(C)C(=O)N2CC(=O)Nc1ccc(Cl)c(F)c1` (single isomer, unassigned) [#215, Enantiomer (10S) or (10R) of N-(4-chloro-3-fluoro-phenyl)-2-[3-fluoro-5-methoxy-10-methyl-9-oxo-4,8,12-triazatricyclo[9.4.0.0^2,7]pentadeca-1(15),2(7),3,5,11,13-hexaen-8-yl]acetamide], the “pIC50 [^14C] L-Cystine uptake assay” value in assay [1] was “C (about 7.40 < pIC50 ≤ about 7.80)”. Also, in assay [2], the “pIC50 Cystine-induced glutamate release assay” value is given as “C (about 7.40 < pIC50 ≤ about 7.80)”.

For the compound `COc1cc2c(c(F)n1)-c1cccnc1C(C)C(=O)N2CC(=O)Nc1ccc(F)c(Cl)c1` (single isomer, unassigned) [#216, Enantiomer (10S) or (10R) of N-(3-chloro-4-fluoro-phenyl)-2-(3-fluoro-5-methoxy-10-methyl-9-oxo-4,8,12-triazatricyclo[9.4.0.0^2,7]pentadeca-1(11),2(7),3,5,12,14-hexaen-8-yl)acetamide], the IC50 in assay [1] is 15.8 to 39.8 nM; in assay [2], 39.8 to 100 nM.

As to `Cc1cc2c(c(F)n1)-c1cncnc1C(C)C(=O)N2CC(=O)Nc1ccc(Cl)c(F)c1` (single isomer, unassigned) [#217, Enantiomer (8S) or (8R) of N-(4-chloro-3-fluoro-phenyl)-2-[15-fluoro-8,13-dimethyl-9-oxo-4,6,10,14-tetrazatricyclo[9.4.0.0^2,7]pentadeca-1(15),2,4,6,11,13-hexaen-10-yl]acetamide], the IC50 in assay [1] and in assay [2] was less than 15.8 nM throughout.

With `Cc1cc2c(c(F)n1)-c1cncnc1C(C)C(=O)N2CC(=O)Nc1ccc(C(F)F)cc1` (single isomer, unassigned) [#218, Enantiomer (8S) or (8S) of (N-[4-(difluoromethyl)phenyl]-2-[15-fluoro-8,13-dimethyl-9-oxo-4,6,10,14-tetrazatricyclo[9.4.0.0^2,7]pentadeca-1(15),2,4,6,11,13-hexaen-10-yl]acetamide], the figures for the IC50 in assay [1] and in assay [2] were 100 to 501 nM and 15.8 to 39.8 nM, respectively.

Regarding `Cc1cc2c(c(=O)n1C)-c1ccccc1C(C)C(=O)N2CC(=O)Nc1ccc(Cl)c(F)c1` (single isomer, unassigned) [#219, Enantiomer (7S) or (7R) of N-(4-chloro-3-fluoro-phenyl)-2-[2,3,7-trimethyl-1,6-dioxo-7H-pyrido[4,3-d][3]benzazepin-5-yl]acetamide], the IC50 in assay [1] and in assay [2] was less than 15.8 nM in each case.

Take `Cc1cc2c(c(Cl)n1)-c1cncnc1C(C)C(=O)N2CC(=O)Nc1ccc(Cl)c(F)c1` (single isomer, unassigned) [#220, Enantiomer (8S) or (8R) of 2-[15-chloro-8,13-dimethyl-9-oxo-4,6,10,14-tetrazatricyclo[9.4.0.0^2,7]pentadeca-1(15),2,4,6,11,13-hexaen-10-yl]-N-(4-chloro-3-fluoro-phenyl)acetamide]: the IC50 in assay [1] and in assay [2] was less than 15.8 nM throughout.

On to `Cc1cc2c(c(F)n1)-c1ccnn1C(C)C(=O)N2CC(=O)Nc1ccc(C(F)F)cc1` (single isomer, unassigned) [#221, Enantiomer (7S) or (7R) of N-[4-(difluoromethyl)phenyl]-2-[14-fluoro-7,12-dimethyl-8-oxo-5,6,9,13-tetrazatricyclo[8.4.0.0^2,6]tetradeca-1(14),2,4,10,12-pentaen-9-yl]acetamide], for which the IC50 in assay [1] was 100 to 501 nM; in assay [2], 39.8 to 100 nM.

`Cc1cc2c(c(F)n1)-c1cccnc1C(CO)C(=O)N2CC(=O)Nc1ccc(C(F)F)cc1` (single isomer, unassigned) [#222, Enantiomer (10S) or (10R) of N-[4-(difluoromethyl)phenyl]-2-[3-fluoro-10-(hydroxymethyl)-5-methyl-9-oxo-4,8,12-triazatricyclo[9.4.0.0^2,7]pentadeca-1(15),2(7),3,5,11,13-hexaen-8-yl]acetamide]: the IC50 in assay [1] was 39.8 to 100 nM; in assay [2], 15.8 to 39.8 nM.
